Assay results reported in US5510346A, “4-heteroaryl-1,3-benzodiazepines and 2-substituted-gamma-(heteroaryl)benzeneethanamines” (Hoechst Marion Roussel, Inc., priority 1991, dated 1996).

Columns and labels:
[1] = test system: N-methyl-D-aspartic acid (NMDA)-induced seizures; assay: N-Methyl-D,L-Aspartic Acid Induced Seizure Assay (NMDA protection); assay type: in vivo; settings: male Swiss Webster mice, ip; N-methyl-D,L-aspartic acid 350 mg/kg challenge; absence of clonic seizures during 30 minute observation
Experimental: In this assay, male Swiss Webster mice (Charles River), 18-25 grams are used. Animals are ordered at 33 to 36 days of age and can be used for 8 days after arrival. They are housed for at least 24 hours in a climate controlled animal colony with food and water available ad libimm. On the day of testing, animals are brought to the laboratory and randomly assigned to groups. N-Methyl-D,L-aspartic acid (350 mg) is dissolved in 10 ml of saline and mixed thoroughly with a homogenizer for 1-2 minutes. Test compounds are prepared in distilled water and, if insoluable, a suitable surfactant is added. For a primary screen the test compound is administered at 60 mg/kg, ip (10 ml/kg), to groups of ten mice, 30 minutes prior to challenge with N-methyl-D,L-aspartic acid (350 mg/kg, […]). After N-Methyl-D,L-aspartic acid administration animals are placed individually in clear plastic cyclinders (12"×5.5"×1/4") and then observed for clonic seizures. N-methyl-D,L-aspartic acid will produce clonic seizures, and sometimes tonic seizures and death, in vehicle control animals.
A clonic convulsion is defined as a single episode of clonic spasms of a least a 3 second duration. […]
Data is calculated by the method of J. T. Litchfield, Jr. and F. Wileoxon. […]
The normalized percent protection is calculated using the following formula: [formula]

[2] = test system: Geller Conflict Paradigm in Rats; assay: Geller Conflict Paradigm in Rats (anxiolytic activity); assay type: in vivo; settings: i.p.
Source text: The intraperitoneal (i.p.) dosages at which the following compounds show anxiolytic activity are: […]

Molecule: 2-Amino-α-(3-methyl-3-thienyl)benzeneethanamine
- NMDA Protection ED50 [1]: 19.0 mg/kg

Molecule: CCNC(Cc1ccccc1N)c1sccc1C.Cl.Cl (stereo not drawn) [2-Amino-N-ethyl-α-(3-methyl-2-thienyl)benzeneethanamine dihydrochloride]
- Anti-Conflict Response % Change Compared to Control ([2]; 1 mg/kg): +100%
- Anti-Conflict Response % Change Compared to Control ([2]; 5 mg/kg): +70%

Molecule: CN1C(=O)CN=C(c2ccccc2)c2cc(Cl)ccc21 [Diazepam, reference compound]
- Anti-Conflict Response % Change Compared to Control ([2]; 10 mg/kg): +180%
- Anti-Conflict Response % Change Compared to Control ([2]; 20 mg/kg): +630%
